Results: patent publication US20250000834A1, “COMPOSITIONS AND METHODS FOR TARGETING GPCR FOR THE PREVENTION AND TREATMENT OF PAIN” (Duke University, priority 2021, published 2025)

Assays:
GPR37L1 [1] = experiment: Lipid overlay assay on MaR1-coated PVDF membrane with mouse DRG lysates; format: binding; details: Gpr37l1 KO DRG lysate
Description: (§1) Lipids overlay assay: Lipids membrane coating and protein overlay assay were performed as previously described (S. Dowler, et al., Protein lipid overlay assay. Sci STKE 2002, p 16 (2002)). […] Compound-coated membranes were dried and blocked with 1% BSA. The coated membranes were incubated with lysates obtained from hGPR37L1-transfected HEK293 cells or mouse DRG lysate from WT or Gpr37l1 KO mice for 2 hours, followed by detection using an anti-GRP37L1 antibody (Bioss (Woburn, MA), Rabbit, 1:1000, #bs-15390R) or anti-flag antibody (Cell Signaling Technology (Danvers, MA), Rabbit, 1:1000, #14793). Blots were further incubated with an HRP-conjugated secondary anti-rabbit antibody (Jackson ImmunoResearch Laboratories (West Grove, PA), raised in donkey, 1:5000), developed in ECL solution (Pierce Biotechnology, Waltham, MA), and the signal was visualized from ChemiDoc XRS (Bio-Rad, Hercules, CA). The signal Intensity was quantified by Image J software (NIH).
(§2) To confirm whether DRG-expressed GPR37L1 would also interact with MaR1, a lipid overlay assay was performed on MaR1-coated PVDF membrane using DRG lysates from WT or Gpr37l1 KO mice. To determine dose-dependent binding, MaR1 was coated at the concentrations of 0.01 nM, 0.1 nM, 1 nM, and 10 nM.

GPR37L1 [2] = molecular target: T1, GPR37L1 (Mus musculus, UniProt Q99JG2); experiment: as above; format: binding; details: WT DRG lysate; MaR1 coated at 10 nM
T1 construct: from tissue; host or cells: mouse dorsal root ganglia (DRG)
T1 sequence (Q99JG2 25-481): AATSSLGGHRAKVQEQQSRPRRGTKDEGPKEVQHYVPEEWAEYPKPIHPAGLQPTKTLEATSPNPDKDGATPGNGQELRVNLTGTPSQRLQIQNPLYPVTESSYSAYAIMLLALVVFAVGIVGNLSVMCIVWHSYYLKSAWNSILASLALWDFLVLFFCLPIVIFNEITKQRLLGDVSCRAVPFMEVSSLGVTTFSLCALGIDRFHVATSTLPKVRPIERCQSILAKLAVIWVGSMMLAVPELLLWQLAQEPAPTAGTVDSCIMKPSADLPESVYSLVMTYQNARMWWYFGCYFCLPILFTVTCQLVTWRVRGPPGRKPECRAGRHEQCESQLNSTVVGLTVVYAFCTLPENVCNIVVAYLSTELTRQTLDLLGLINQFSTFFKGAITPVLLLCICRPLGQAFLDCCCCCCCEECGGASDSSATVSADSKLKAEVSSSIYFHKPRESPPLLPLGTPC
Description: as §1, §2

[3] = test system: STZ-induced mechanical allodynia in mice; experiment: Streptozotocin (STZ)-induced mechanical allodynia, von Frey paw withdrawal threshold; format: in vivo, mouse; details: intrathecal 100 ng
Description: Pain models and drug injection: Animal model of chemotherapy-induced peripheral neuropathy (CIPN) was induced by paclitaxel (Sigma-Aldrich (St. Louis, MO), T7191, diluted with sterile saline). A single injection of paclitaxel ([…]) was given by intraperitoneal injection. A single injection of paclitaxel may induce mechanical allodynia for 4-6 weeks (X. Luo et al., Macrophage Toll-like Receptor 9 Contributes to Chemotherapy-Induced Neuropathic Pain in Male Mice. J Neurosci 39, 6848-6864 (2019)). Animal model of […] neuropathy was induced by streptozotocin (STZ, Sigma-Aldrich (St. Louis, MO), S0130, diluted with sterile saline). A single injection of STZ (75 mg/kg) was given as previously described (N. C. Brigham et al., Controlled release of etoricoxib from poly(ester urea) films for post-operative pain management. J Control Release 329, 316-327 (2021)). For intrathecal (i.t.) injection of MaR1, a spinal cord puncture was made by a Hamilton micro-syringe (Hamilton, Reno, NV) with a 30-gauge needle between the L5 and L6 levels to deliver reagents (5 μl) to the cerebral spinal fluid (J. L. Hylden, G. L. Wilcox, Intrathecal morphine in mice: a new technique. Eur. J Pharmacol. 67, 313-316 (1980)).
Nociceptive behavior tests: Gpr37l1^+/+, Gpr37l1^+/−, or Gpr37l1^−/− mice were habituated to the testing environment for at least two days before the baseline testing. All the animal behaviors were tested blindly. Thermal and mechanical sensitivity was tested before and after the injection of paclitaxel (PTX, 6 mg/kg, IP) and streptozotocin (STZ, 75 mg/kg, IP). MaR1 was intrathecally injected 3 days after the STZ and PTX injection. […] The 50% paw withdrawal threshold was measured by Dixon's up-down method (W. J. Dixon, Efficient analysis of experimental observations. Annu Rev Pharmacol Toxicol 20, 441-462 (1980)). Thermal sensitivity was measured using a Hargreaves radiant heat apparatus (IITC Life Science, Woodland Hills, CA) (K. Hargreaves, et al., A new and sensitive method for measuring thermal nociception in cutaneous hyperalgesia. Pain 32, 77-88 (1988)). […]

With `CC/C=C\C/C=C\C[C@H](O)\C=C/C=C/C=C/[C@H](O)C/C=C\CCC(=O)O` [MaR1, Maresin 1] the “binding spot in lipid overlay assay” value (GPR37L1 [1]) was “completely absent”, the “binding spot in lipid overlay assay” value (GPR37L1 [2]) was “specific binding spot was observed” and the “effect on STZ-induced mechanical allodynia” value (“effect” below) ([3]; Gpr37l1+/+ WT mice, 3 days after STZ) was “reversed STZ-induced mechanical allodynia in all the mice”. The “effect” value ([3]; Gpr37l1+/− mice) was “significantly reversed the mechanical allodynia in the majority” and the “effect” value ([3]; Gpr37l1−/− mice) was “no significant effects”.
